From patent US6743824B2 (Somerset Pharmaceuticals, Inc., priority 1996, dated 2004)
Where a name gives a salt, the structure may show the parent alone.

Assays:
[1] = tested on: peripheral neuropathy caused by vincristine; experiment: Treatment of peripheral neuropathy caused by vincristine (Example 1); assay type: in vivo, human; conditions: patient with endometrial carcinoma on vincristine 1.4 mg/m^2 weekly; 5 mg orally twice a day
Protocol: A patient with endometrial carcinoma is given an intravenous bolus injection of vincristine at a dose of 1.4 mg/m^2 weekly. The toxic effects of vincristine cause sensory loss in the fingers and toes, a loss of the ankle jerk reflex, weakness and postural hypotension. […] During this time, therapy with vincristine is continued and evaluations of both tumor response and toxic side effects are carried out by a physician on a weekly basis. After continued therapy, symptoms associated with peripheral neuropathy subside. At this point, the dosage of vincristine is increased to 1.8 mg/m^2 and the process is continued.

[2] = tested on: CNS neurons; conditions: toxins such as MPP+, kainic acid or DSP-4; cited from earlier work
[3] = tested on: spinal motor neurons; conditions: rat; Iwasaki et al. 1994; cited from earlier work
[4] = tested on: axotomized rat facial motor neurons; conditions: Salo et al. 1992; cited from earlier work
[5] = tested on: retinal ganglion cells; conditions: rat optic nerve crush model; Buys et al. 1994; cited from earlier work
[6] = tested on: cultured spinal cord neuron; conditions: Iwasaki et al. 1994; cited from earlier work

Structure (SMILES) | symptoms associated with peripheral neuropathy [1] | survival of CNS neurons after exposure to chemical toxins [2] | effect on axotomy-induced cell death in spinal motor neurons [3] | rescue of axotomized facial motor neurons [4] | survival of retinal ganglion cells at risk of undergoing apoptosis [5] | neurite outgrowth [6]
C#CCN(C)[C@H](C)Cc1ccccc1 [selegiline hydrochloride] | subside |  |  |  |  | 
C#CCN(C)C(C)Cc1ccccc1 (stereo not drawn) [selegiline, R-(−)-N-methyl-N-(prop-2-ynyl)-2-aminophenylpropane] |  | increase the survival | neuroprotective effect | capable of rescuing | increase the survival | enhance neurite outgrowth
